Data reported in article PMC3684613 (PLoS ONE, 2013).
Like-named read-outs stand apart in the source and are kept apart here.

Tests used:
P. falciparum 3D7 [1] = experiment: DAPI stain fluorescent high content imaging assay, P. falciparum 3D7 (confirmatory screen, Avery); settings: Plasmodium falciparum; for inhibition of growth at 5 µM: 3D7, read-out: percent_inh @ 5 uM; for EC50: 3D7, read-out: EC50_nM; for inhibition of growth at 2 µM: 3D7, read-out: percent_inh @ 2 uM
P. falciparum 3D7 [2] = tested on: P. falciparum 3D7; design: method as in ChEMBL-NTD; settings: ref ChEMBL-NTD, cited from earlier work
[3] = values follow the order of the source (GNF; GSK; StJude)
[4] = original screening data, source (GSK, GNF, StJude), several values separated by ';' in order of sources

| SMILES | EC50 (P. falciparum 3D7 [1]) [nM] | inhibition of growth at 5 µM (P. falciparum 3D7 [1]) [%] | further results |
| --- | --- | --- | --- |
| COc1ccc(-c2cn3c(C(=O)Nc4ccccc4Cl)c(-c4ccccc4)c4c3n2CCCC4)cc1 [MMV020403] |  | 80 | EC50 (P. falciparum 3D7 [2]; [3]): 792 nM |
| COc1ccccc1N1CCN(C(CNS(=O)(=O)c2ccc(Cl)cc2)c2cccnc2)CC1 (stereo not shown) [MMV665914] |  | 93 | EC50 (P. falciparum 3D7 [2]; source StJude): 15000 nM |
| COCCN(C(=O)Cc1cccs1)C(C(=O)NCc1ccc(OC)cc1)c1ccc(C(C)C)cc1 (stereo not shown) [MMV666105] | 1190 | 92 | EC50 (P. falciparum 3D7 [2]; source GSK): 845 nM |
| CCOC(=O)C1(Cc2ccccc2)CCN(Cc2cccc(OC)c2O)CC1 [MMV666109] |  | 95 | EC50 (P. falciparum 3D7 [2]; source StJude (SJ ids)): 2290 nM |
| Cc1ccc(CN2CCC(C(=O)Nc3ccc(-c4cc5ccccc5[nH]4)cc3)CC2)o1 [MMV666071] |  | 77 | EC50 (P. falciparum 3D7 [2]; source GSK): 1420 nM |
| COc1cc2c3cc1Oc1c(OC)c(OC)cc4c1C(Cc1ccc(O)c(c1)Oc1ccc(cc1)CC3N(C)CC2)N(C)CC4 (stereo not shown) [MMV007474] | 1270 | 96 | EC50 (P. falciparum 3D7 [2]; [3]): 997 nM |
| CC(=O)NCCc1nc2ccccc2n1Cc1ccc(C(C)C)cc1 [MMV007617] | 1790 | 97 | EC50 (P. falciparum 3D7 [2]; source GNF): 764 nM |
| Cc1ccc(C)c(Cn2c(N3CCC(C(=O)NCc4cccs4)CC3)nc3ccccc32)c1 [MMV019741] | 1330 | 97 | EC50 (P. falciparum 3D7 [2]; source GSK (TCMDC ids)): 938 nM |
| CCCc1c(C)nc2ccc(Br)cc2c1O [MMV666095] | 1190 | 64 | EC50 (P. falciparum 3D7 [2]; source GNF (GNF-Pf ids)): 1510 nM |
| Cc1ccc(Cl)cc1N1CCN(CCCNC(=O)C2CCN(c3nc4ccccc4[nH]3)CC2)CC1 [MMV019746] | 1330 | 97 | EC50 (P. falciparum 3D7 [2]; source GSK): 895 nM |
| COc1ccc(-c2cc(=O)oc3c4c(ccc23)OCN(Cc2ccc(F)cc2)C4)cc1 [MMV000604] | 735 | 96 | EC50 (P. falciparum 3D7 [2]; source StJude (SJ ids)): 5210 nM |
| OC(CNCc1ccccc1)Cn1c2ccccc2c2ccccc21 (stereo not shown) [MMV000839] | 1080 | 95 | EC50 (P. falciparum 3D7 [2]; source StJude (SJ ids)): 3760 nM |
| Cc1c(C)n(CC(O)CNC2CCCCC2C)c2ccccc12 (stereo not shown) [MMV665806] | 769 | 96 | EC50 (P. falciparum 3D7 [2]; [4]): 527 nM |
| Cc1ccc2c(C)nc(Nc3nc(C)cc(-c4ccccc4)n3)nc2c1 [MMV007041] | 4000 |  | inhibition of growth at 2 µM (P. falciparum 3D7 [1]): 73%; EC50 (P. falciparum 3D7 [2]; [3]): 975 nM |
| Cc1ccc2nc(C)cc(Nc3cccc(C(F)(F)F)c3)c2c1 [MMV000326] | 1170 | 98 | EC50 (P. falciparum 3D7 [2]; source StJude (SJ ids)): 879 nM |

More lines, in order of falling EC50 (P. falciparum 3D7 [1]), values ahead:

| EC50 (P. falciparum 3D7 [1]) [nM] | SMILES | inhibition of growth at 5 µM (P. falciparum 3D7 [1]) [%] | further results |
| --- | --- | --- | --- |
| 684 | Cc1cc(Nc2ccc(OCc3ccccc3)cc2)nc2cc(O)ccc12 [MMV007181] | 96 | EC50 (P. falciparum 3D7 [2]; [3]): 73.6 nM |
| 641 | CCN(CC)S(=O)(=O)c1ccc(-c2csc(Nc3ccc(C)c(C)c3)n2)cc1 [MMV009108] | 97 | EC50 (P. falciparum 3D7 [2]; [4]): 2100 nM |
| 480 | CCOc1ccc2nc(C)cc(Nc3ccc(Br)cc3)c2c1 [MMV006522] |  | inhibition of growth at 2 µM (P. falciparum 3D7 [1]): 96%; EC50 (P. falciparum 3D7 [2]; [3]): 114 nM |
| 439 | CCOc1ccc2c(c1)CN(Cc1ccc(Cl)cc1)CO2 [MMV000443] | 97 | EC50 (P. falciparum 3D7 [2]; source StJude (SJ ids)): 1490 nM |
| 407 | CCCOCc1cc(CN2CCN(c3cccc(Cl)c3)CC2)c(O)c2ncccc12 [MMV000787] | 97 | EC50 (P. falciparum 3D7 [2]; source StJude (SJ ids)): 1100 nM |
| 393 | COc1cccc(C(=O)NC(c2ccc(C)cc2)c2cc(Cl)c3cccnc3c2O)c1 (stereo not shown) [MMV665969] | 97 | EC50 (P. falciparum 3D7 [2]; source StJude (SJ ids)): 15000 nM |
| 350 | COc1cc(-c2nc(-c3ccc(Sc4ccccc4)cc3)c(-c3ccccc3)[nH]2)cc(OC)c1O [MMV007273] | 97 | EC50 (P. falciparum 3D7 [2]; source GNF (GNF-Pf ids)): 1280 nM |
| 304 | c1ccc2c(NCCc3c[nH]c4ccccc34)c3ccccc3nc2c1 [MMV006513] | 97 | EC50 (P. falciparum 3D7 [2]; source GNF (GNF-Pf ids)): 86 nM |
| 268 | Cc1cc(C)c2c(c1)OCN(Cc1ccccc1Cl)C2 [MMV006558] | 98 | EC50 (P. falciparum 3D7 [2]; source GNF (GNF-Pf id)): 192 nM |
| 235 | CN(C)CCCNc1c2ccccc2nc2ccccc12 [MMV000448] | 95 | EC50 (P. falciparum 3D7 [2]; source GNF (GNF-Pf id)): 32.7 nM; EC50 (P. falciparum 3D7 [2]; source GSK (TCMDC id)): 1040 nM; EC50 (P. falciparum 3D7 [2]; source StJude (SJ id)): 531 nM |
| 232 | CCOC(=O)c1cnc2c(C)cc(C)cc2c1Nc1ccc(OC)c(OC)c1 [MMV008294] | 96 | EC50 (P. falciparum 3D7 [2]; source GNF (GNF-Pf id)): 1780 nM |
| 148 | COc1ccc(C2=C(c3ccc(OC)cc3)C3(c4ccccc4)C(=O)C2(c2ccccc2)C2C(=O)N(c4ccc(C)cc4)C(=O)C23)cc1 (stereo not shown) [MMV666101] | 98 | EC50 (P. falciparum 3D7 [2]; source GNF (GNF-Pf id)): 12500 nM |
